Test results as given in patent publication US8680275B2, “Fused heterocyclic compounds as orexin receptor modulators” (Janssen Pharmaceutica NV, priority 2009, dated 2014).
Like-named read-outs stand apart in the source and are kept apart here.

Experiments:
human orexin-2 receptor = human orexin-2 receptor (Homo sapiens (Human), UniProt O43614); experiment: Human orexin 2 receptor radioligand binding ([3H]-EMPA competition); settings: read-out: OR-2 Ki
Procedure, shortened: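 Competition binding on HEK293 cells stably expressing human orexin-2 receptor, using 5 nM final [3H]-EMPA in PBS, compounds 0.1 nM to 10 μM (DMSO ≤0.1%). 60 min at room temperature, then filtration and scintillation counting; nonspecific binding defined with 10 μM of a reference antagonist.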

human orexin 1 receptor = human orexin 1 receptor (Homo sapiens (Human), UniProt O43613); experiment: Human orexin 1 receptor radioligand binding ([3H]-SB674042 competition); settings: read-out: OR-1 Ki
Procedure, shortened: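 CHO cells stably expressing human OX1R incubated 60 min at room temperature with [3H]-SB674042 and compounds (7 concentrations, 0.1 nM–10 μM; DMSO ≤0.1%) in PBS. Nonspecific binding defined with 10 μM of a reference urea antagonist; bound radioactivity measured by filtration and scintillation counting.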

[1] = HEK293 cells stably expressing human orexin-2 receptor, [3H]-EMPA 5 nM final
[2] = CHO cells stably expressing human orexin 1 receptor, [3H]-SB674042 4 nM final

Sequence of human orexin-2 receptor (O43614 whole entry): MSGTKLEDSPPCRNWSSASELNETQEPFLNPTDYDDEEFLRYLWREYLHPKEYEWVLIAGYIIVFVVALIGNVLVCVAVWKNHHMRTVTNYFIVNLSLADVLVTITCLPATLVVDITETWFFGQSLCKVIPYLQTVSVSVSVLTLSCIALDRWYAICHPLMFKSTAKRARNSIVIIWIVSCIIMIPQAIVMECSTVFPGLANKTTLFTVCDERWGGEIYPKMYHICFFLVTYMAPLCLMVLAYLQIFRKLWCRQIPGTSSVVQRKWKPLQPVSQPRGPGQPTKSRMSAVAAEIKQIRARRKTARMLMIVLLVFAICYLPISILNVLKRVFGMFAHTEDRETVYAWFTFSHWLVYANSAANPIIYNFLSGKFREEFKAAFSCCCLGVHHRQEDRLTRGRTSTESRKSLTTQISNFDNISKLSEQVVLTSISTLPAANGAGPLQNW
Sequence of human orexin 1 receptor (O43613 whole entry): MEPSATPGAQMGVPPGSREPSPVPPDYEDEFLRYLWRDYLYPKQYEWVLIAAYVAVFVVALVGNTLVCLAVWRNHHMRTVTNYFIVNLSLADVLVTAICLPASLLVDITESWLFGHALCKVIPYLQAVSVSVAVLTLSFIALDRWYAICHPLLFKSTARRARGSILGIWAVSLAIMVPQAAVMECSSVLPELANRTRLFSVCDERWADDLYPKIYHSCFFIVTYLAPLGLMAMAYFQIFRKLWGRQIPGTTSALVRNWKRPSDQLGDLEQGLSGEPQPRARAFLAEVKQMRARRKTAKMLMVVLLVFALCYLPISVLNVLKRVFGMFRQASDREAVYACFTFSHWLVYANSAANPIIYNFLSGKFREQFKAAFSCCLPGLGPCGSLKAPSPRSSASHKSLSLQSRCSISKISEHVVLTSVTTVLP

`Cc1cncc(N2C[C@@H]3CCN(C(=O)c4cccc(F)c4-n4nccn4)C[C@@H]32)n1` [Example 110, (1R,6S)-3-{[3-Fluoro-2-(2H-1,2,3-triazol-2-yl)phenyl]carbonyl}-8-(6-methylpyrazin-2-yl)-3,8-diazabicyclo[4.2.0]octane] showed a Ki (human orexin-2 receptor; [1]) of 220 nM and a Ki (human orexin 1 receptor; [2]) of 10000 nM.
Compound `Cc1cncc(N2C[C@@H]3CCN(C(=O)c4cc(F)ccc4-n4nccn4)C[C@@H]32)n1` [Example 111, (1R,6S)-3-{[5-Fluoro-2-(2H-1,2,3-triazol-2-yl)phenyl]carbonyl}-8-(6-methylpyrazin-2-yl)-3,8-diazabicyclo[4.2.0]octane] has a Ki (human orexin-2 receptor; [1]) of 176 nM and a Ki (human orexin 1 receptor; [2]) of 5000 nM.
Work on `Cc1cncc(N2C[C@@H]3CCN(C(=O)c4ccccc4-n4nccn4)C[C@@H]32)n1` [Example 112, (1R,6S)-8-(6-Methylpyrazin-2-yl)-3-{[2-(2H-1,2,3-triazol-2-yl)phenyl]carbonyl}-3,8-diazabicyclo[4.2.0]octane] yielded a Ki (human orexin-2 receptor; [1]) of 115 nM and a Ki (human orexin 1 receptor; [2]) of 1960 nM.
Work on `Cc1cncc(N2C[C@@H]3CCN(C(=O)c4c(F)cccc4-n4nccn4)C[C@@H]32)n1` [Example 113, (1R,6S)-3-{[2-Fluoro-6-(2H-1,2,3-triazol-2-yl)phenyl]carbonyl}-8-(6-methylpyrazin-2-yl)-3,8-diazabicyclo[4.2.0]octane] yielded a Ki (human orexin-2 receptor; [1]) of 161 nM and a Ki (human orexin 1 receptor; [2]) of 9000 nM.
`Cc1cncc(N2C[C@@H]3CCN(C(=O)c4ccc(F)cc4-n4nccn4)C[C@@H]32)n1` [Example 114, (1R,6S)-3-{[4-Fluoro-2-(2H-1,2,3-triazol-2-yl)phenyl]carbonyl}-8-(6-methylpyrazin-2-yl)-3,8-diazabicyclo[4.2.0]octane] showed a Ki (human orexin-2 receptor; [1]) of 494 nM and a Ki (human orexin 1 receptor) of 10000 nM.
`O=C(c1ccc(F)cc1-n1nccn1)N1CC[C@H]2CN(c3cnc4ccccc4n3)[C@H]2C1` [Example 115, 2-[(1R,6S)-3-{[4-Fluoro-2-(2H-1,2,3-triazol-2-yl)phenyl]carbonyl}-3,8-diazabicyclo[4.2.0]oct-8-yl]quinoxaline] showed a Ki (human orexin-2 receptor; [1]) of 60 nM and a Ki (human orexin 1 receptor; [2]) of 177 nM.
`O=C(c1cccc(F)c1-n1nccn1)N1CC[C@H]2CN(c3cnc4ccccc4n3)[C@H]2C1` [Example 116, 2-[(1R,6S)-3-{[3-Fluoro-2-(2H-1,2,3-triazol-2-yl)phenyl]carbonyl}-3,8-diazabicyclo[4.2.0]oct-8-yl]quinoxaline] showed a Ki (human orexin-2 receptor; [1]) of 28 nM and a Ki (human orexin 1 receptor; [2]) of 23 nM.
For `O=C(c1c(F)cccc1-n1nccn1)N1CC[C@H]2CN(c3cnc4ccccc4n3)[C@H]2C1` [Example 117, 2-[(1R,6S)-3-{[2-Fluoro-6-(2H-1,2,3-triazol-2-yl)phenyl]carbonyl}-3,8-diazabicyclo[4.2.0]oct-8-yl]quinoxaline], the Ki (human orexin-2 receptor; [1]) was 18 nM and the Ki (human orexin 1 receptor; [2]) was 23 nM.
Work on `O=C(c1cc(F)ccc1-n1nccn1)N1CC[C@H]2CN(c3cnc4ccccc4n3)[C@H]2C1` [Example 118, 2-[(1R,6S)-3-{[5-Fluoro-2-(2H-1,2,3-triazol-2-yl)phenyl]carbonyl}-3,8-diazabicyclo[4.2.0]oct-8-yl]quinoxaline] yielded a Ki (human orexin-2 receptor; [1]) of 40 nM and a Ki (human orexin 1 receptor; [2]) of 33 nM.
Work on `O=C(c1ccccc1-n1nccn1)N1CC[C@H]2CN(c3nc4cc(Cl)ccc4o3)[C@H]2C1` [Example 119, 5-Chloro-2-[(1R,6S)-3-{[2-(2H-1,2,3-triazol-2-yl)phenyl]carbonyl}-3,8-diazabicyclo[4.2.0]oct-8-yl]-1,3-benzoxazole] yielded a Ki (human orexin-2 receptor; [1]) of 17 nM and a Ki (human orexin 1 receptor; [2]) of 32 nM.
Work on `O=C(c1c(F)cccc1-n1nccn1)N1CC[C@H]2CN(c3nc4cc(Cl)ccc4o3)[C@H]2C1` [Example 120, 5-Chloro-2-[(1R,6S)-3-{[2-fluoro-6-(2H-1,2,3-triazol-2-yl)phenyl]carbonyl}-3,8-diazabicyclo[4.2.0]oct-8-yl]-1,3-benzoxazole] yielded a Ki (human orexin-2 receptor; [1]) of 26 nM and a Ki (human orexin 1 receptor; [2]) of 43 nM.
Work on `O=C(c1cc(F)ccc1-n1nccn1)N1CC[C@H]2CN(c3nc4cc(Cl)ccc4o3)[C@H]2C1` [Example 121, 5-Chloro-2-[(1R,6S)-3-{[5-fluoro-2-(2H-1,2,3-triazol-2-yl)phenyl]carbonyl}-3,8-diazabicyclo[4.2.0]oct-8-yl]-1,3-benzoxazole] yielded a Ki (human orexin-2 receptor) of 75 nM and a Ki (human orexin 1 receptor; [2]) of 91 nM.
Compound `O=C(c1ccc(F)cc1-n1nccn1)N1CC[C@H]2CN(c3nc4cc(Cl)ccc4o3)[C@H]2C1` [Example 122, 5-Chloro-2-[(1R,6S)-3-{[4-fluoro-2-(2H-1,2,3-triazol-2-yl)phenyl]carbonyl}-3,8-diazabicyclo[4.2.0]oct-8-yl]-1,3-benzoxazole] has a Ki (human orexin-2 receptor; [1]) of 59 nM and a Ki (human orexin 1 receptor; [2]) of 128 nM.
`O=C(c1cccc(F)c1-n1nccn1)N1CC[C@H]2CN(c3nc4cc(Cl)ccc4o3)[C@H]2C1` [Example 123, 5-Chloro-2-[(1R,6S)-3-{[3-fluoro-2-(2H-1,2,3-triazol-2-yl)phenyl]carbonyl}-3,8-diazabicyclo[4.2.0]oct-8-yl]-1,3-benzoxazole] gave a Ki (human orexin-2 receptor; [1]) of 45 nM and a Ki (human orexin 1 receptor; [2]) of 95 nM.
Compound `Cc1cccc(N2C[C@@H]3CCN(C(=O)c4c(F)cccc4-n4nccn4)C[C@@H]32)n1` [Example 124, (1R,6S)-3-{[2-Fluoro-6-(2H-1,2,3-triazol-2-yl)phenyl]carbonyl}-8-(6-methylpyridin-2-yl)-3,8-diazabicyclo[4.2.0]octane] has a Ki (human orexin-2 receptor; [1]) of 92 nM and a Ki (human orexin 1 receptor; [2]) of 4150 nM.
`Cc1cccc(N2C[C@@H]3CCN(C(=O)c4ccccc4-n4nccn4)C[C@@H]32)n1` [Example 125, (1R,6S)-8-(6-Methylpyridin-2-yl)-3-{[2-(2H-1,2,3-triazol-2-yl)phenyl]carbonyl}-3,8-diazabicyclo[4.2.0]octane] showed a Ki (human orexin-2 receptor; [1]) of 73 nM and a Ki (human orexin 1 receptor; [2]) of 3300 nM.
For `Cc1cccc(N2C[C@@H]3CCN(C(=O)c4cc(F)ccc4-n4nccn4)C[C@@H]32)n1` [Example 126, (1R,6S)-3-{[5-Fluoro-2-(2H-1,2,3-triazol-2-yl)phenyl]carbonyl}-8-(6-methylpyridin-2-yl)-3,8-diazabicyclo[4.2.0]octane], the Ki (human orexin-2 receptor; [1]) was 149 nM and the Ki (human orexin 1 receptor; [2]) was 5470 nM.
In the case of `Cc1ccnc(N2C[C@@H]3CCN(C(=O)c4cc(F)ccc4-n4nccn4)C[C@@H]32)c1` [Example 127, (1R,6S)-3-{[5-Fluoro-2-(2H-1,2,3-triazol-2-yl)phenyl]carbonyl}-8-(4-methylpyridin-2-yl)-3,8-diazabicyclo[4.2.0]octane], the Ki (human orexin-2 receptor; [1]) is reported as 210 nM and the Ki (human orexin 1 receptor; [2]) is reported as 10000 nM.
Compound `Cc1cc(C)nc(N2C[C@@H]3CCN(C(=O)c4cc(F)ccc4-n4nccn4)C[C@@H]32)c1` [Example 128, (1R,6S)-8-(4,6-Dimethylpyridin-2-yl)-3-{[5-fluoro-2-(2H-1,2,3-triazol-2-yl)phenyl]carbonyl}-3,8-diazabicyclo[4.2.0]octane] has a Ki (human orexin-2 receptor; [1]) of 26 nM and a Ki (human orexin 1 receptor; [2]) of 1010 nM.
For `O=C(c1cc(F)ccc1-n1nccn1)N1CC[C@H]2CN(c3cccc(C(F)(F)F)n3)[C@H]2C1` [Example 129, (1R,6S)-3-{[5-Fluoro-2-(2H-1,2,3-triazol-2-yl)phenyl]carbonyl}-8-[6-(trifluoromethyl)pyridin-2-yl]-3,8-diazabicyclo[4.2.0]octane], the Ki (human orexin-2 receptor; [1]) was 36 nM and the Ki (human orexin 1 receptor; [2]) was 265 nM.
Compound `O=C(c1cc(F)ccc1-n1nccn1)N1CC[C@H]2CN(c3cc(C(F)(F)F)ccn3)[C@H]2C1` [Example 130, (1R,6S)-3-{[5-Fluoro-2-(2H-1,2,3-triazol-2-yl)phenyl]carbonyl}-8-[4-(trifluoromethyl)pyridin-2-yl]-3,8-diazabicyclo[4.2.0]octane] has a Ki (human orexin-2 receptor; [1]) of 31 nM and a Ki (human orexin 1 receptor; [2]) of 1720 nM.
With `Cc1ccc(N2C[C@@H]3CCN(C(=O)c4cc(F)ccc4-n4nccn4)C[C@@H]32)nc1` [Example 131, (1R,6S)-3-{[5-Fluoro-2-(2H-1,2,3-triazol-2-yl)phenyl]carbonyl}-8-(5-methylpyridin-2-yl)-3,8-diazabicyclo[4.2.0]octane] the Ki (human orexin-2 receptor; [1]) was 250 nM and the Ki (human orexin 1 receptor; [2]) was 1600 nM.
Compound `Cc1cc(C)nc(N2C[C@@H]3CCN(C(=O)c4cccc(C)c4-n4cccn4)C[C@@H]32)n1` [Example 133, (1R,6S)-8-(4,6-Dimethylpyrimidin-2-yl)-3-{[3-methyl-2-(1H-pyrazol-1-yl)phenyl]carbonyl}-3,8-diazabicyclo[4.2.0]octane] has a Ki (human orexin-2 receptor; [1]) of 36 nM and a Ki (human orexin 1 receptor; [2]) of 550 nM.
Work on `COc1ccc(-n2nccn2)c(C(=O)N2CC[C@H]3CN(c4nc(C)cc(C)n4)[C@H]3C2)c1` [Example 134, (1R,6S)-8-(4,6-Dimethylpyrimidin-2-yl)-3-{[5-methoxy-2-(2H-1,2,3-triazol-2-yl)phenyl]carbonyl}-3,8-diazabicyclo[4.2.0]octane] yielded a Ki (human orexin-2 receptor; [1]) of 16 nM and a Ki (human orexin 1 receptor; [2]) of 277 nM.
Compound `Cc1cc(C)nc(N2C[C@@H]3CCN(C(=O)c4cccc(C)c4-n4nccn4)C[C@@H]32)n1` [Example 135, (1R,6S)-8-(4,6-Dimethylpyrimidin-2-yl)-3-{[3-methyl-2-(2H-1,2,3-triazol-2-yl)phenyl]carbonyl}-3,8-diazabicyclo[4.2.0]octane] has a Ki (human orexin-2 receptor; [1]) of 15 nM and a Ki (human orexin 1 receptor; [2]) of 135 nM.
With `Cc1cc(C)nc(N2C[C@@H]3CCN(C(=O)c4nccnc4-c4ccccc4)C[C@@H]32)n1` [Example 137, (1R,6S)-8-(4,6-Dimethylpyrimidin-2-yl)-3-[(3-phenylpyrazin-2-yl)carbonyl]-3,8-diazabicyclo[4.2.0]octane] the Ki (human orexin-2 receptor; [1]) was 275 nM and the Ki (human orexin 1 receptor; [2]) was 10000 nM.
In the case of `Cc1cc(C)nc(N2C[C@@H]3CCN(C(=O)c4cccc(C)c4-n4ccnn4)C[C@@H]32)n1` [Example 138, (1R,6S)-8-(4,6-Dimethylpyrimidin-2-yl)-3-{[3-methyl-2-(1H-1,2,3-triazol-1-yl)phenyl]carbonyl}-3,8-diazabicyclo[4.2.0]octane], the Ki (human orexin-2 receptor; [1]) is reported as 70 nM and the Ki (human orexin 1 receptor; [2]) is reported as 1650 nM.
